Experimental data taken from patent US20170088589A1, “STATIN RESISTANCE AND EXPORT” (DANMARKS TEKNISKE UNIVERSITET, priority 2014, published 2017).

Key:
[1] = system: Saccharomyces cerevisiae WT and ARX3 strain harbouring the putative efflux pump MlcE; assay: serial dilution plating of WT and ARX3 on YPD agar plates containing different cytotoxic compounds (FIG. 3); assay type: cell-based; details: compound in YPD agar, tenfold dilution series, 30° C., 2 days; compactin, lovastatin, simvastatin in active form
Experimental: Investigation of the potential of MlcE to confer the resistance to statins in yeast. Tenfold dilution series of Saccharomyces cerevisiae WT and ARX3 strain harbouring the putative efflux pump MlcE, starting with an OD600 of 0.02 were prepared from overnight cultures.
Moreover, to determine if the putative efflux pump MlcE has the ability to export statins across the plasma membrane the inventors of the present application also tested whether MlcE confers resistance to statins in yeast. […] The resulting yeast strain ARX3 was tested for susceptibility to compactin by serial dilution plating of both wild type (WT) and ARX3 strains on YPD agar plates supplemented with the active form of compactin (FIG. 3).

[2] = system: Saccharomyces cerevisiae strains (wt, ARX3, AR29 pdr5Δ, pdr5Δ); assay: agar-plate dilution assay (spot assay) with lovastatin, PDR5 complementation (FIG. 4); details: lowest tested concentration (0.74 mM) of activated lovastatin, 30° C., 3 days
Experimental: The constructed strains response to different lovastatin levels present in the growth medium were tested using a agar-plate dilution assay (also known as a spot assay). Overnight cultures of the four Saccharomyces cerevisiae strains (wt, ARX3, AR29 pdr5Δ, pdr5Δ,) were diluted to OD600 of 0.2 and a fivefold dilution series for each strain was made. […] The growth of the individual strain as a function of time was recorded by photography.

| SMILES | resistance of MlcE-expressing strain ARX3 compared to the wild type strain [1] | growth of pdr5Δ strain [2] |
| --- | --- | --- |
| CC(C)c1c(C(=O)Nc2ccccc2)c(-c2ccccc2)c(-c2ccc(F)cc2)n1CC[C@@H](O)C[C@@H](O)CC(=O)O [atorvastatin] | does not show an increased resistance |  |
| CC[C@H](C)C(=O)O[C@H]1CCC=C2C=C[C@H](C)[C@H](CC[C@@H]3C[C@@H](O)CC(=O)O3)[C@H]21 [compactin] | increased resistance |  |
| CC[C@H](C)C(=O)O[C@H]1C[C@@H](C)C=C2C=C[C@H](C)[C@H](CC[C@@H]3C[C@@H](O)CC(=O)O3)[C@H]21 [lovastatin] | increased resistance | lack of growth |
| COc1c(C)c2c(c(O)c1C/C=C(\C)CCC(=O)O)C(=O)OC2 [mycophenolic acid] | does not show an increased resistance |  |
| COc1cc(C=O)ccc1O [vanillin] | does not show an increased resistance |  |
